The values below come from patent publication US20080103198A1, “METHODS FOR TREATMENT OF COCHLEAR AND VESTIBULAR DISORDERS” (priority 2006, published 2008).

Assay [1] relates to Li-Pilo SE. Put plainly: Lithium-pilocarpine model (Example 2): mortality and latency to SRS. Format: in vivo, rat. More on the design: degree of mortality: concentration or dose not given beside the values. The procedure: The model induced in rats by pilocarpine associated with lithium (Li-Pilo) reproduces most of the clinical and neurophysiological features of human temporal lobe epilepsy (See, Turski et al., 1989; Synapse 3:154-171; Cavalheiro, 1995, Ital J Neurol Sci 16:33-37). In adult rats, the systemic administration of pilocarpine leads to SE that may last for up to 24 h. The lethality rate reaches 30-50% during the first days. In the surviving animals, neuronal damage predominates within the hippocampal formation, the piriform and entorhinal cortices, thalamus, amygdaloid complex, neocortex and substantia nigra.
In the present study, we tested the effects of different doses of various doses of test compound, i.e. 30, 60, 90 and 120 mg/kg (referred to herein as RWJ30, RWJ60, RWJ90 and RWJ120) using the same design as in the previous study. The treatment was started one hour after the onset of status epilepticus (SE) and the animals were treated with a second injection of the same dose of the drug. This early treatment of SE was followed by a 6 day test compound treatment. This report concerns the effects of the four different doses of test compound on neuronal damage in hippocampus and parahippocampal cortices. The study on the latency to the onset of epilepsy is still incomplete but we will show the data we have got at present which have been performed on a limited group of animals. The latency to spontaneous epileptic seizures was correlated on the same rats to the number of neurons remaining in the areas involved in the circuit of seizures.
Adult male Sprague-Dawley rats provided by Janvier Breeding Center (Le Genest-St-Isle, France) were housed under controlled, uncrowded standard conditions at 20-22° C. (light/dark cycle, 7.00 a.m.-7.00 p.m. lights on), with food and water available ad libitum. All animal experimentation was performed in accordance with the rules of the European Communities Council Directive of Nov. 24, 1986 (86/609/EEC), and the French Department of Agriculture (License No 67-97).
All rats received lithium chloride (3 meq/kg, i.p., Sigma, St Louis, Mo., U.S.A.) and about 20 h later, all animals received also methylscopolamine bromide (1 mg/kg, s.c., Sigma) that was administered to limit the peripheral effects of the convulsant. SE was induced by injecting pilocarpine hydrochloride (25 mg/kg, s.c., Sigma) 30 min after methylscopolamine. The effects of increasing doses of test compound (RWJ) were studied in 5 groups of rats. The animals received either 2.5 mg/kg diazepam, i.m., (DZP), or 30, 60, 90 or 120 mg/kg of test compound (RWJ30, RWJ60, RWJ90, RWJ120), i.p., at 1 h after the onset of SE. The control group received vehicle instead of pilocarpine and test compound. The rats surviving SE were then injected about 10 h after the first test compound injection with a second i.p. injection of 1.25 mg/kg DZP for the DZP group or of the same dose of test compound as in the morning and were maintained under a twice daily test compound treatment for 6 additional days (s.c.) while DZP rats received a vehicle injection. The effects of the four doses of test compound on the latency to occurrence of spontaneous recurrent seizures (SRS) were investigated by daily video recording of the animals for 10 h per day.

Assay [2] concerns Li-Pilo SE. Put plainly: Lithium-pilocarpine model (Example 2): quantification of cell densities. The class given is in vivo, rat. The procedure:
Quantification of cell densities was performed at two times after SE: a first group was studied 14 days after SE and was composed by 7 DZP, 8 RWJ30, 11 RWJ60, 10 RWJ90, 8 RWJ120 and 8 control rats not subjected to SE. A second group used for the study of the latency to SRS was sacrificed either 8 weeks after the first SRS or at 5 months when no SRS could be seen in that delay and was composed by 7 DZP, 2 RWJ30, 3 RWJ60, 3 RWJ90, 4 RWJ120 rats. Animals were deeply anesthetized with 1.8 g/kg pentobarbital (Dolethal®, Vétoquinol, Lure, France). Brains were then removed and frozen. Serial 20 μm slices were cut in a cryostat, air-dried during several days before thionine staining. Quantification of cell densities was performed with a 10×10 boxes 1 cm^2 microscopic grid on coronal sections according to the stereotaxic coordinates of the rat brain atlas (Paxinos and Watson, 1986, The Rat Brain in Stereotaxic coordinates, 2nd ed. Academic Press, San Diego). The grid of counting was placed on a well-defined area of the cerebral structure of interest and counting was carried out with a microscopic enlargement of 200- or 400-fold defined for each single cerebral structure. Cell counts were performed twice on each side of three adjacent sections for each region by a single observer unaware of the animal's treatment. The number of cells obtained in the 12 counted fields in each cerebral structure was averaged. This procedure was used to minimize the potential errors that could result from double counting leading to overestimation of cell numbers. […] Counts involved only neurons with cell bodies larger than 10 μm. Cells with small cell bodies were considered as glial cells and were not counted.
For neuronal damage, statistical analysis between groups was performed by means of a one-way analysis of variance followed by a post-hoc Scheffe's test using the Statview software.

The mark [3] stands for this setting: 14 days after SE, DZP 2.5 mg/kg i.m., mean ± S.E.M.
The mark [4] stands for this setting: DZP vs control rats, 14 days after SE.

As for `CN1C(=O)CN=C(c2ccccc2)c2cc(Cl)ccc21` [DZP, diazepam, reference compound], the “latency to spontaneous seizures (mean)” value in the assay with Li-Pilo SE [1] (DZP group, 7 rats) amounted to 18 ± 8 days. In the assay on Li-Pilo SE [1] (early cell counting group, DZP 2.5 mg/kg i.m.), the “mortality over the first 48 h after SE” value stood at 47%. The molecule further yielded a degree of mortality with Li-Pilo SE [1] (latency to SRS / late cell counting group, DZP) of 30%. In the assay on Li-Pilo SE [2] (setting [3]), the “number of neuronal cell bodies, Dorsal entorhinal, layer II” value is reported as 23.5 ± 0.7; the “number of neuronal cell bodies, Dorsal entorhinal, layer III” value turned out to be 22.3 ± 0.5; the “number of neuronal cell bodies, Piriform, layer II, dorsal” value is given as 12.6 ± 4.2; the “number of neuronal cell bodies, Piriform, layer II, ventral” value is 3.6 ± 0.7. For the same molecule, in the assay with Li-Pilo SE [2] (setting [3]), the “number of neuronal cell bodies, Piriform, layer III” value came to 1.2 ± 1.2; the “number of neuronal cell bodies, Ventral entorhinal, layer II” value is recorded as 21.7 ± 1.3; the “number of neuronal cell bodies, Ventral entorhinal, layers III-IV” value worked out at 7.7 ± 2.3; the “number of neuronal cell bodies, hippocampus CA1 area” value is reported as 10.9 ± 1.9. In addition, in the assay on Li-Pilo SE [2] (setting [3]), the “number of neuronal cell bodies, hippocampus CA3 area” value came out at 31.3 ± 2.9 and the “number of neuronal cell bodies, hippocampus Hilus” value worked out at 33.5 ± 3.0. For the same molecule, the “damage, entorhinal cortex dorsal layers II and III/IV and ventral layer II” value in the assay with Li-Pilo SE [2] (DZP group) is given as 18-24%. Moreover, in the assay on Li-Pilo SE [2] (setting [4]), the “cell loss, CA1 pyramidal cell layer” value was determined as 85%; the “cell loss, CA3” value stood at 40%; the “cell loss, hilus of dentate gyrus” value is 66%; the “cell loss, piriform cortex dorsal layer II” value was 66%. For the same molecule, in the assay with Li-Pilo SE [2] (setting [4]), the “cell loss, piriform cortex layer III” value stood at 94%; the “cell loss, piriform cortex ventral layer II” value is recorded as 89%; the “damage, dorsal entorhinal cortex layer II” value amounted to 18%; the “damage, dorsal entorhinal cortex layers III-IV” value worked out at 24%. Besides, in the assay on Li-Pilo SE [2] (setting [4]), the “damage, ventral entorhinal cortex layer II” value was determined as 22% and the “damage, ventral entorhinal cortex layers III/IV” value turned out to be 74%.
